Laboratory results from article PMC5365662, “A Short Double-Stapled Peptide Inhibits Respiratory Syncytial Virus Entry and Spreading” (Antimicrobial Agents and Chemotherapy, 2017).
Bridge positions count the residues as written; N and C are the ends. Square brackets hold non-standard residues; d marks the D form. Peptide text beside a SMILES is read from it. R8 = C=CCCCCCC[C@@](C)(N)C(=O)O; S5 = C=CCCC[C@](C)(N)C(=O)O

Columns and labels:
circular dichroism = conditions: 10 mM phosphate; pH 7.5; 25 °C; 50 uM
[1] = target: 5HB, a recombinant protein containing 3 HR1 domains covalently attached to 2 HR2 domains; conditions: competition with fluorescently labeled T108 probe (2 nM), 5HB 50 nM, 10 min preincubation + 30 min room temperature, duplicates
Text: The RSV HR2 region (residues 476 to 524) is a 49-amino-acid sequence that has been extensively characterized (Fig. 1). HR2 is a largely unstructured peptide in aqueous solution folding into an α-helix upon binding to trimeric HR1 coiled coils ([20]). […] We reduced HR2 (aa 483 to 516) into three short overlapping subdomains (subdomains 1 to 3) (Fig. 1). These peptides were scanned for various stapling combinations. […] Far-UV circular dichroism (CD) spectropolarimetry was used to investigate the effect of stapling on the α-helical content of the peptides. […] To assess the propensity of the stapled peptides to hinder the formation of the postfusion six-helix bundle required for viral cell entry, we used a 5-helix bundle (5HB) biochemical fluorescence polarization (FP) competition assay as previously described ([21], [22]).
The coding sequence of 5HB was designed as described previously and de novo synthesized by Genscript ([21]). The HR1 (aa 126 to 182) and HR2 (aa 476 to 524) coding sequences from wild-type RSV A2 strain F ([36]) were codon optimized for overexpression in Escherichia coli and cloned at NdeI/BamHI restriction sites of pET-15b to generate the expression plasmid for 5HB. The 5HB expression construct was transformed into Escherichia coli BL21(DE3). Cells were grown at 37°C to an optical density at 600 nm of 0.8 followed by induction with isopropyl-1-thio-β-D-galactopyranoside at a final concentration of 0.5 mM for 12 to 15 h. Cells were harvested by centrifugation, washed twice with PBS, and resuspended in 20 ml of PBS (pH 7.4), 500 mM NaCl, and 1% Triton X-100 supplemented with complete protease inhibitor. Cell suspensions were disrupted by sonication. Cell debris was removed through ultracentrifugation at 18,000 × g for 1 h at 4°C, and clarified cell lysate was mixed with 1 ml of nickel-nitrilotriacetic acid (Ni-NTA) agarose beads (Qiagen) preequilibrated with 20 ml of lysis buffer. The suspension was agitated for 1 h at 4°C and loaded onto a 5-ml polypropylene column (Qiagen). The column was washed twice with 8 ml of PBS (pH 7.4), 500 mM NaCl, 1% Triton X-100, and 100 mM imidazole. Proteins were eluted with 5 × 500 μl of a buffer containing PBS (pH 7.4), 300 mM imidazole, and 500 mM NaCl. The imidazole was removed by dialysis, and protein purity was assessed by SDS-polyacrylamide gel electrophoresis followed by Coomassie blue staining. Protein concentration was determined with the Qubit 2.0 Fluorometer (Life Technologies).
The T108 ([12]) peptide probe was synthesized by standard SPPS procedures using HCTU as a coupling reagent as described above. A 10-μl volume of recombinant 5HB protein in FP buffer (20 mM PBS [pH 7.4], 500 mM NaCl, 0.01% [vol/vol] Tween 20, and 0.05 mg/ml bovine gamma globulin) was preincubated for 10 min at room temperature with 10 μl of the appropriate concentration of the inhibitor, after which 10 μl of fluorescein isothiocyanate (FITC)-T106 was added and further incubated for 30 min at room temperature. The final concentrations of protein and probe were 50 nM and 2 nM, respectively. The fluorescence polarization assay was performed in 384-well plates using a Spectramax Paradigm (Molecular Devices), using excitation and emission wavelengths of 485 nm and 535 nm, respectively. The acquisition time was 700 ms, and the read height was 1 mm. All experiments were performed in duplicate. […] In order to ensure robust fitting for some fits, r0 was kept constant at the value measured for the free tracer in buffer.

[2] = test system: rHRSV-mCherry in HEp-2 cells; assay: rHRSV-mCherry inhibition assay; assay type: cell-based, human respiratory syncytial virus; conditions: Table 3 (Ala scan); HEp-2 cells, rHRSV-mCherry MOI 0.2, 2-fold serial dilutions (11 dilutions), duplicate; ± SD of fit
Method: To measure the inhibitory activity of the peptide, the mCherry red fluorescence was quantified 48 h postinfection (p.i.).
Viral replication was quantified by measuring the mCherry fluorescence at 48 h p.i. and normalized based on the fluorescence of infected and untreated cells. (B) Cytotoxicity assay. HEp-2 cells were incubated in the presence of serial dilutions of peptides, and cell survival was quantified using the CellTiter-Glo Luminescent cell viability assay 24 h after the addition of the peptides. The signal was normalized based on the luminescence obtained for untreated cells. Error bars are standard deviations from duplicates.
HEp-2 cells were seeded at 5 × 10^4 cells per well in a 96-well plate the day before the infection. Peptides were 2-fold serially diluted in dimethyl sulfoxide (DMSO) (11 dilutions) and then further diluted in EMEM without phenol red and preincubated for 15 to 20 min with rHRSV-mCherry ([24]) at a final dilution with an MOI of 0.2 ([24]). The cells were incubated with the virus-peptide mixtures for a period of 1.5 to 2 h. The medium was then replaced by EMEM without phenol red containing 2% fetal bovine serum and the same concentration of peptide as the one that was used during the infection step. Plates were incubated 48 h at 37°C, and the mCherry fluorescence was measured using a spectrofluorometer (Tecan infinite M200PRO) with excitation and emission wavelengths of 580 and 620 nm, respectively. Relative fluorescence was normalized by the fluorescence of nontreated infected cells. Noninfected HEp-2 cells were used as standards for fluorescence background levels. Each experiment was performed in duplicate and repeated at least twice. The resulting inhibition curves were fitted in Igor Pro as described above.

| Structure (SMILES) | helicity (circular dichroism) | Kd [1] | EC50 [2] |
| --- | --- | --- | --- |
| CC[C@H](C)[C@H](NC(=O)[C@H](Cc1ccccc1)NC(=O)[C@H](C)NC(=O)[C@H](CC(C)C)NC(=O)[C@H](CO)NC(=O)[C@H](CCC(N)=O)NC(=O)[C@H](CCC(=O)O)NC(C)=O)C(=O)N[C@@H](CCCNC(=N)N)C(=O)N[C@@H](CCCCN)C(=O)N[C@@H](CO)C(=O)N[C@@H](CC(=O)O)C(=O)N[C@@H](CCC(=O)O)C(=O)N[C@@H](CC(C)C)C(=O)N[C@@H](CC(C)C)C(=O)N[C@@H](Cc1c[nH]cn1)C(=O)N[C@@H](CC(N)=O)C(=O)N[C@H](C(N)=O)C(C)C [Peptide 3] (Ac-EQSLAFIRKSDELLHNV-NH2) | 5.9% | > 10800 nM | – |
| CC[C@H](C)[C@H](NC(=O)[C@H](CCC(=O)O)NC(C)=O)C(=O)N[C@@H](CO)C(=O)N[C@@H](CCC(N)=O)C(=O)N[C@H](C(=O)N[C@@H](CC(N)=O)C(=O)N[C@@H](CCC(=O)O)C(=O)N[C@@H](CCCCN)C(=O)N[C@H](C(=O)N[C@]1(C)CCCCCCC=CCCC[C@@](C)(C(N)=O)NC(=O)[C@H]([C@@H](C)CC)NC(=O)[C@H](Cc2ccccc2)NC(=O)[C@H](C)NC(=O)[C@H](CC(C)C)NC(=O)[C@H](CO)NC(=O)[C@H](CCC(N)=O)NC1=O)[C@@H](C)CC)C(C)C [Peptide 2f] (Ac-EISQVNEKI[R8]QSLAFI[S5]-NH2; staple 10-17) | 15.7% | 363000 ± 238000 nM | – |
| CC[C@H](C)[C@H](NC(=O)[C@H](CCCCN)NC(=O)[C@H](CCC(=O)O)NC(=O)[C@H](CC(N)=O)NC(=O)[C@@H](NC(=O)[C@H](CCC(N)=O)NC(=O)[C@H](CO)NC(=O)[C@@H](NC(=O)[C@H](CO)NC(=O)[C@H](C)NC(=O)[C@H](CC(=O)O)NC(=O)[C@H](Cc1ccccc1)NC(=O)[C@H](CCC(=O)O)NC(=O)[C@H](CC(=O)O)NC(=O)[C@H](CO)NC(=O)[C@@H]1CCCN1C(=O)[C@H](Cc1ccccc1)NC(=O)[C@H](CCC(=O)O)NC(C)=O)[C@@H](C)CC)C(C)C)C(=O)N[C@@H](CC(N)=O)C(N)=O [Peptide 1] (Ac-EFPSDEFDASISQVNEKIN-NH2) | – | 2200 ± 500 nM | – |
| CC[C@H](C)[C@H](NC(=O)[C@H](Cc1ccccc1)NC(=O)[C@]1(C)CCCC=CCCC[C@](C)(NC(=O)[C@@H](NC(=O)[C@H](CCCCN)NC(=O)[C@H](CCC(=O)O)NC(=O)[C@H](CC(N)=O)NC(=O)[C@@H](NC(=O)[C@H](CCC(N)=O)NC(=O)[C@H](CO)NC(=O)[C@@H](NC(=O)[C@H](CCC(=O)O)NC(C)=O)[C@@H](C)CC)C(C)C)[C@@H](C)CC)C(=O)N[C@@H](CCC(N)=O)C(=O)N[C@@H](CO)C(=O)N[C@@H](CC(C)C)C(=O)N1)C(=O)N[C@@H](CCCNC(=N)N)C(N)=O [Peptide 2b] (Ac-EISQVNEKI[S5]QSL[S5]FIR-NH2; staple 10-14) | 35.8% | 369000 ± 99000 nM | – |
| CC[C@H](C)[C@H](NC(=O)[C@H](CCCCN)NC(=O)[C@H](CCC(=O)O)NC(=O)[C@H](CC(N)=O)NC(=O)[C@@H](NC(=O)[C@H](CCC(N)=O)NC(=O)[C@H](CO)NC(=O)[C@@H](NC(=O)[C@H](CO)NC(=O)[C@]1(C)CCCC=CCCC[C@](C)(NC(=O)[C@H](CO)NC(=O)[C@@H]2CCCN2C(=O)[C@H](Cc2ccccc2)NC(=O)[C@H](CCC(=O)O)NC(C)=O)C(=O)N[C@@H](CCC(=O)O)C(=O)N[C@@H](Cc2ccccc2)C(=O)N[C@@H](CC(=O)O)C(=O)N1)[C@@H](C)CC)C(C)C)C(=O)N[C@@H](CC(N)=O)C(N)=O [Peptide 1e] (Ac-EFPS[S5]EFD[S5]SISQVNEKIN-NH2; staple 5-9) | 35.5% | 15000 ± 3000 nM | – |
| CC[C@H](C)[C@H](NC(=O)[C@H](CCCCN)NC(=O)[C@H](CCC(=O)O)NC(C)=O)C(=O)N[C@@]1(C)CCCC=CCCC[C@@](C)(C(=O)N[C@@H](Cc2ccccc2)C(=O)N[C@H](C(=O)N[C@@]2(C)CCCC=CCCC[C@@](C)(C(=O)N[C@@H](CC(C)C)C(=O)N[C@@H](CC(C)C)C(=O)N[C@@H](Cc3c[nH]cn3)C(=O)N[C@@H](CC(N)=O)C(=O)N[C@H](C(N)=O)C(C)C)NC(=O)[C@H](CC(=O)O)NC(=O)[C@H](CO)NC(=O)[C@H](CCCCN)NC2=O)[C@@H](C)CC)NC(=O)[C@H](CC(C)C)NC(=O)[C@H](CO)NC(=O)[C@H](C)NC1=O [Peptide Q501A] (Ac-EKI[S5]ASL[S5]FI[S5]KSD[S5]LLHNV-NH2; staple 4-8, 11-15) | 12% | – | 280 ± 430 nM |
| CC[C@H](C)[C@H](NC(=O)[C@H](CCCCN)NC(=O)[C@H](CCC(=O)O)NC(C)=O)C(=O)N[C@@]1(C)CCCC=CCCC[C@@](C)(C(=O)N[C@@H](Cc2ccccc2)C(=O)N[C@H](C(=O)N[C@@]2(C)CCCC=CCCC[C@@](C)(C(=O)N[C@@H](C)C(=O)N[C@@H](CC(C)C)C(=O)N[C@@H](Cc3c[nH]cn3)C(=O)N[C@@H](CC(N)=O)C(=O)N[C@H](C(N)=O)C(C)C)NC(=O)[C@H](CC(=O)O)NC(=O)[C@H](CO)NC(=O)[C@H](CCCCN)NC2=O)[C@@H](C)CC)NC(=O)[C@H](CC(C)C)NC(=O)[C@H](CO)NC(=O)[C@H](CCC(N)=O)NC1=O [Peptide L512A] (Ac-EKI[S5]QSL[S5]FI[S5]KSD[S5]ALHNV-NH2; staple 4-8, 11-15) | 45% | – | 880 ± 60 nM |
| CC[C@H](C)[C@H](NC(=O)[C@H](CCCCN)NC(=O)[C@H](C)NC(C)=O)C(=O)N[C@@]1(C)CCCC=CCCC[C@@](C)(C(=O)N[C@@H](Cc2ccccc2)C(=O)N[C@H](C(=O)N[C@@]2(C)CCCC=CCCC[C@@](C)(C(=O)N[C@@H](CC(C)C)C(=O)N[C@@H](CC(C)C)C(=O)N[C@@H](Cc3c[nH]cn3)C(=O)N[C@@H](CC(N)=O)C(=O)N[C@H](C(N)=O)C(C)C)NC(=O)[C@H](CC(=O)O)NC(=O)[C@H](CO)NC(=O)[C@H](CCCCN)NC2=O)[C@@H](C)CC)NC(=O)[C@H](CC(C)C)NC(=O)[C@H](CO)NC(=O)[C@H](CCC(N)=O)NC1=O [Peptide E497A] (Ac-AKI[S5]QSL[S5]FI[S5]KSD[S5]LLHNV-NH2; staple 4-8, 11-15) | 38% | – | 1160 ± 80 nM |
| CC[C@H](C)[C@H](NC(=O)[C@H](CCCCN)NC(=O)[C@H](CCC(=O)O)NC(C)=O)C(=O)N[C@@]1(C)CCCC=CCCC[C@@](C)(C(=O)N[C@@H](Cc2ccccc2)C(=O)N[C@H](C(=O)N[C@@]2(C)CCCC=CCCC[C@@](C)(C(=O)N[C@@H](CC(C)C)C(=O)N[C@@H](CC(C)C)C(=O)N[C@@H](Cc3c[nH]cn3)C(=O)N[C@@H](CC(N)=O)C(=O)N[C@H](C(N)=O)C(C)C)NC(=O)[C@H](CC(=O)O)NC(=O)[C@H](CO)NC(=O)[C@H](CCCCN)NC2=O)[C@@H](C)CC)NC(=O)[C@H](CC(C)C)NC(=O)[C@H](C)NC(=O)[C@H](CCC(N)=O)NC1=O [Peptide S502A] (Ac-EKI[S5]QAL[S5]FI[S5]KSD[S5]LLHNV-NH2; staple 4-8, 11-15) | 15% | – | 660 ± 260 nM |
